{"source": "patent US20260335448A1", "about": "(priority 2022, published 2026)", "origin": "cited, not measured here", "key": {"dengue virus": {"test_system": "dengue virus", "details": "in vitro"}, "West Nile virus": {"test_system": "West Nile virus", "details": "in vitro"}, "[1]": {"test_system": "Venezuelan equine encephalitis virus"}, "pseudorabies virus [2]": {"test_system": "pseudorabies virus"}, "pseudorabies virus [3]": {"test_system": "pseudorabies virus", "details": "in vivo"}, "[4]": {"test_system": "SARS-COV-2-infected Vero/hSLAM cells", "details": "in vitro, at high concentrations"}, "breast cancer": {"test_system": "breast cancer", "details": "in vitro"}, "colon cancer": {"test_system": "colon cancer", "details": "in vitro"}, "gastric cancer": {"test_system": "gastric cancer", "details": "in vitro"}, "glioblastoma": {"test_system": "glioblastoma", "details": "in vitro"}, "leukemia": {"test_system": "leukemia", "details": "in vitro"}, "melanoma": {"test_system": "melanoma", "details": "in vitro"}, "ovarian cancer": {"test_system": "ovarian cancer", "details": "in vitro"}}, "note": "Like-named read-outs stand apart in the source and are kept apart here."}
{"substance": "ivermectin", "values": [{"measurement": "anti-viral activity", "setting": "dengue virus", "result": "activity in vitro"}, {"measurement": "anti-viral activity", "setting": "West Nile virus", "result": "activity in vitro"}, {"measurement": "anti-viral activity", "setting": "[1]", "result": "activity in vitro"}, {"measurement": "anti-viral activity", "setting": "pseudorabies virus [2]", "result": "activity in vitro"}, {"measurement": "anti-viral activity", "setting": "pseudorabies virus [3]", "result": "activity in vitro and in vivo"}, {"measurement": "anti-viral activity", "setting": "[4]", "result": "activity in vitro"}, {"measurement": "anti-tumor activity", "setting": "breast cancer", "result": "activity in vitro"}, {"measurement": "anti-tumor activity", "setting": "colon cancer", "result": "activity in vitro"}, {"measurement": "anti-tumor activity", "setting": "gastric cancer", "result": "activity in vitro"}, {"measurement": "anti-tumor activity", "setting": "glioblastoma", "result": "activity in vitro"}, {"measurement": "anti-tumor activity", "setting": "leukemia", "result": "activity in vitro"}, {"measurement": "anti-tumor activity", "setting": "melanoma", "result": "activity in vitro"}, {"measurement": "anti-tumor activity", "setting": "ovarian cancer", "result": "activity in vitro"}]}
